The text below walks through data of patent US20070191288A1, “Treatments for Benign Tumors, Cancers, Neoplasias, and/or Other Inflammatory Disorders or Diseases” (priority 2002, published 2007).

Structures are written as SMILES.

One assay has as its system lipoma. Put plainly: Effects of topiramate on lipoma in a dog. It is filed as in vivo. As to conditions: 12-year-old female German Shorthaired Pointer (30.8 kg), large lipoma on right rib cage; topiramate 25 mg/day once per day, 59 days versus 24 days. The method, then: FIG. 1A, depicts the size of a lipoma on a dog treated with topiramate for 24 days. FIG. 1B illustrates the reduction in lipoma size on the dog after topiramate had been administered for 59 days (25 mg/day administered once per day).

For assay [1], the system named is simple and complex partial seizures and secondarily generalized seizures. As to conditions: clinical trials of human epilepsy; adjunctive therapy or monotherapy; cited from earlier work.

Take `CC1(C)O[C@@H]2[C@@H](CO[C@@]3(COS(N)(=O)=O)OC(C)(C)O[C@@H]23)O1` [topiramate, 2,3:4,5-bis-O-(1-methylethylidene)-β-D-fructopyranose sulfamate]: the “reduction in lipoma size/mass” value with lipoma is given as “shrunk considerably”. The “efficacy in treating simple and complex partial seizures and secondarily generalized seizures” value in assay [1] is “effective”.
